# Entries after “also recorded” stand apart in the source; their conditions may differ. Like-named read-outs stand apart in the source and are kept apart here.
# Key:
# D. suzukii = test: Insecticidal activity on larvae and pupae development and adult emergence in pre-infested blueberries (dip); format: in vivo, Drosophila suzukii; conditions: for Adults / Larvae / Pupae: pre-infested berries soaked 2 min in 1% solution, assessed after 10 days at room temperature, mean of three replicates (standard error)
# Experimental: Impacts of MB and other compounds on D. suzukii control: To investigate the acute toxicity of some compounds of formula 1 against D. suzukii, a published procedure was followed (Cuthbertson, A. G. S., et al., Insects, 5: 488-498 (2014)). First, mixed-sex adults D. suzukii (100) were introduced into a plastic cage (30×30×30 cm) and reared on blueberries (100) for 4 days. After that, the infested blueberries were taken out from the cage. Half of the blueberries (50) were dipped in 100 mL aqueous emulsion of each compound listed in Table 1 at 1% concentration for 2 min as treatment, while the other half of the blueberries (50) were dipped in DI water for 2 min as blank control. Then the corresponding blueberries were separately taken out, placed in two different Petri dishes, and allowed to air dry for 2 h. Second, treatment and blank control blueberries were respectively stored in two plastic cups (32 oz) with closed caps and incubated at room temperature for 10 days. The emergence of adults was then subsequently assessed. The developments of larvae and pupae were further inspected by dissection of the treatment and blank control berries. Each treatment and blank control was repeated three times.
# L. dispar larvae = test: Larvicidal toxicity, treated filter paper in Petri dish; format: in vivo; conditions: for LC50 (95% CL): 1st stage larvae, 24 hr; for larvicidal toxicity against L. dispar (in words): in vivo; for decreased toxicities compared with MB: from LC50 values
# Experimental: Toxicities of MB and some compounds of formula 1 on L. dispar larvae: The bioassays were carried out in plastic Petri dish loaded with filter paper, following a published procedure (Nielsen 2008). 600 μL acetone solution of one derivative with different concentrations was loaded onto the filter paper (90 mm diameter) evenly, and the filter paper was dried for 2 min and then put into the bottom of Petri dish. 10 L. dispar larvae were put onto the Petri dish and covered with a lid. 30 larvae were used for each amount. The mortality was assessed after 24 hr.
# S. invicta workers [1] = test: Fumigant toxicity in sealed glass flask; format: in vivo, Solenopsis invicta; conditions: for LC50 / mortality at 1.43 µg/mL: Solenopsis invicta; for fumigant toxicity against S. invicta (in words): in vivo
# Experimental: A 250-ml glass flask (the whole volume is 280 ml) was used to house worker ants in fumigant toxicity bioassays. Two micro-liter of acetone solution of the tested compound was applied onto a paraffin film, which was used to seal the flask with ants. The treated spot of the paraffin film faced the inside of the flask. The upper part of the flask was coated with Fluon® to prevent ants from contacting the test material. Two experiments were conducted. […] LC50 value was established using 5 dosages. Each dosage was replicated 3 times for each of 3 colonies. Each replicate consisted of 15 to 26 ants. Ants that could not stand by themselves were considered dead. Dead ants were counted after 24 h.
# H. halys eggs = test: Ovicidal toxicity, direct spray on eggs; format: in vivo; conditions: eggs sprayed, 10 days
# Text: (§1) Ovicidal toxicities of MB and some compounds of formula 1: The aqueous solutions of one of the compounds of formula 1 with designated concentrations with different concentrations of active ingredient (AI) were separately stored in glass spray bottles according to a published procedure (Cuthbertson 2014). The eggs (10 for H. halys and 100 for P. xylostella) were laid on filter papers in Petri dishes. Different aqueous insecticidal solutions were sprayed on the surfaces of different eggs three times (˜0.5 mL) to completely cover the treatment areas. Then the Petri dishes were covered with lids and maintained in a fume hood for 10 days. The Petri dishes were then inspected for presence of nymph/larvae development or numbers of unhatched eggs.
# Plutella xylostella eggs = test: Ovicidal toxicity, direct spray on eggs; format: in vivo; conditions: hatchability after 10 days; 0.05% and 0.1% concentrations (FIG. 3)
# Text: as §1
# H. halys nymphs [2] = test: Nymphicidal toxicity, treated filter paper in glass vial; format: in vivo; conditions: for LC50 (95% CL): 24 hr
# Experimental: Toxicities of MB, some compounds of formula 1, and commercial pesticides on H. halys nymphs: The bioassays were carried out in glass vials (20 mL), following a published procedure (Nielsen, A. L., et al., J. Econ. Entomol., 101: 1439-1442 (2008)). Filter paper was cut into round shape pieces (2.4 cm diameter). 50 μL acetone solution of one derivative or commercial pesticide with different concentrations was loaded onto the filter paper evenly, and the filter paper was dried for 1 min and then put into the bottom of vial. A small piece of green bean was put on the filter paper in the vial as food source. Different stages of H. halys nymphs were introduced into the vial and capped with a cotton ball. For each stage, 30 nymphs were used for each amount. For the nymphs of the first instar, 10 nymphs were put into 1 vial. For the nymphs of the second and third instar, 5 nymphs were put into 1 vial. For the nymphs of the fourth instar, 3 nymphs were put into 1 vial. For the nymphs of the fifth instar, 2 nymphs were put into 1 vial. The mortality was assessed after 24 hr.
# [3] = Release rate (evaporation from cotton ball in tube); format: physicochemical; conditions: room temperature, hood air flow 129 FPM
# Experimental: Release rate: Release rate tests of selective compounds were carried out in the laboratory. 1 mL of each compound was loaded on a cotton ball in a polypropylene flex tube (1.5 mL Eppendorf micro-centrifuge tube, VWR International, Radnor, PA). The tubes were hung in the hood with air flow of 129 FPM. At 2 pm on each weekday, the tubes were weighed and recorded (Zhang, A., et al., Environ. Entomol., 37: 719-724 (2008)). Each treatment was replicated 5 times.
# S. invicta workers [4] = conditions: for mean mortality / increase of mean mortality compared with MB: dose 77.9 μg/ant, 24 h
# Experimental: Fire ant bioassays were conducted in USDA, ARS Stoneville laboratory at 25° C., 80% R.H. with a 12:12 (L:D) photoperiod. Contact toxicities of MB and some compounds of formula 1 against fire ants: Topical application was used for contact toxicity bioassay. Only large workers were used for a purpose of relatively uniform body weight and ease of handling. For all compounds, acetone was used as a solvent. The solution was applied using a 0.779 μl capillary tube. Two experiments were conducted for assessing contact toxicity. […] In order to investigate the structure-activity relationship, LD50 values were also established for MB and EB. […] For each LD50 value, 5 doses of benzoates were used. Each dose was replicated 3 times. Each replicate consisted of 13 to 18 ants. Treated ants were placed in a 30-ml capped cup and dead ants were counted after 24 h.
# H. halys nymphs [5] = conditions: 24 hr, copied from previous research, cited from earlier work
# [6] = Sigma-Aldrich SDS; cited from earlier work
# [7] = 24 h, read-out: mean LC50 value, mean over colonies, 24 h
# [8] = 24 h, read-out: mean mortality, dosage 1.43 μg/ml, 24 h
smiles,measurement,setting,value
"C=COC(=O)c1ccccc1 [VB, vinyl benzoate]",Adults,D. suzukii,0
same,Larvae,D. suzukii,0
same,Pupae,D. suzukii,0
same,LC50 (95% CL),L. dispar larvae,0.065 (0.059-0.071) mg/cm^2
same,larvicidal toxicity against L. dispar (in words),L. dispar larvae,highest larvicidal toxicity
same,times more toxic than commercial pesticide acetamiprid,L. dispar larvae; ratio of LC50 values,3.4 times
same,times more toxic than commercial pesticide pyriproxyfen,L. dispar larvae; ratio of LC50 values,1.3 times
same,LC50,"S. invicta workers [1]; 24 h, colony 1, 24 h",0.95 µg/mL
same,LC50,"S. invicta workers [1]; 24 h, colony 2, 24 h",0.77 µg/mL
same,LC50,"S. invicta workers [1]; 24 h, colony 3, 24 h",0.96 µg/mL
same,LC50,S. invicta workers [1]; [7],0.89 µg/mL
same,mortality at 1.43 µg/mL,S. invicta workers [1]; [8],~100%
same,fumigant toxicity against S. invicta (in words),S. invicta workers [1],powerful fumigant toxicities
same,LC50 (95% CL),H. halys eggs,0.017 (0.010-0.024) mg/cm^2
same,ovicidal toxicity against P. xylostella eggs (in words),Plutella xylostella eggs,highest toxicity
same,LC50 (95% CL),H. halys nymphs [2]; 2nd stage nymphs,1.131 (0.757-1.337) μL/vial
"COC(=O)c1ccccc1 [MB, methyl benzoate]",Adults,D. suzukii,0
same,Larvae,D. suzukii,0
same,Pupae,D. suzukii,0
same,first order evaporation rate constant k (exponent of fitted curve),[3],0.162
same,LC50 (95% CL),L. dispar larvae,0.114 (0.091-0.134) mg/cm^2
same,LD50,"S. invicta workers [4]; colony 1, 24 h",149.39 μg/ant
same,LD50,"S. invicta workers [4]; colony 2, 24 h",93.65 μg/ant
same,LD50,"S. invicta workers [4]; colony 3, 24 h",128.45 μg/ant
same,mean mortality,S. invicta workers [4],7.67%
same,LC50,"S. invicta workers [1]; 24 h, colony 1, 24 h, read-out: LC50",0.77 µg/mL
same,LC50,"S. invicta workers [1]; 24 h, colony 2, 24 h, read-out: LC50",0.66 µg/mL
same,LC50,"S. invicta workers [1]; 24 h, colony 3, 24 h, read-out: LC50",0.82 µg/mL
same,mortality at 1.43 µg/mL,"S. invicta workers [1]; 24 h, dosage 1.43 μg/ml, 24 h, read-out: mean mortality",~100%
same,LC50,"S. invicta workers [1]; 24 h, mean over colonies, 24 h, read-out: mean LC50 value",0.75 µg/mL
same,mean mortality,"S. invicta workers [1]; dosage 1.43 μg/ml, 24 h",100%
same,fumigant toxicity against S. invicta (in words),S. invicta workers [1],powerful fumigant toxicities
same,LC50 (95% CL),H. halys eggs,0.020 (0.012-0.026) mg/cm^2
same,LC50 (95% CL),H. halys nymphs [5]; 1st stage nymphs,1.03 (0.93-1.10) μL/vial
same,LC50 (95% CL),H. halys nymphs [5]; 2nd stage nymphs,1.01 (0.86-1.12) μL/vial
same,LC50 (95% CL),H. halys nymphs [5]; 3rd stage nymphs,1.23 (1.12-1.33) μL/vial
same,LC50 (95% CL),H. halys nymphs [5]; 4th stage nymphs,2.39 (2.19-2.60) μL/vial
same,LC50 (95% CL),H. halys nymphs [5]; 5th stage nymphs,1.77 (1.60-1.93) μL/vial
"COC(=O)c1ccccc1OC [M2MOB, methyl 2-methoxybenzoate]",Adults,D. suzukii,0
same,Larvae,D. suzukii,0
same,Pupae,D. suzukii,0
same,first order evaporation rate constant k (exponent of fitted curve),[3],8E-04
same,LC50 (95% CL),L. dispar larvae,0.230 (0.170-0.294) mg/cm^2
same,decreased toxicities compared with MB,L. dispar larvae,50%
same,LD50,"S. invicta workers [4]; colony 1, 24 h",67.73 μg/ant
same,LD50,"S. invicta workers [4]; colony 2, 24 h",96.43 μg/ant
same,LD50,"S. invicta workers [4]; colony 3, 24 h",78.34 μg/ant
same,increase of mean mortality compared with MB,S. invicta workers [4],7 times
same,mean mortality,S. invicta workers [4],55.74%
same,fumigant toxicity against S. invicta (in words),S. invicta workers [1],significantly reduced
same,LC50 (95% CL),H. halys eggs,0.011 (0.006-0.015) mg/cm^2
same,LC50 (95% CL),H. halys nymphs [2]; 2nd stage nymphs,1.530 (1.309-1.951) μL/vial
"COC(=O)c1cccc(OC)c1 [M3MOB, methyl 3-methoxybenzoate]",Adults,D. suzukii,0
same,Larvae,D. suzukii,0
same,Pupae,D. suzukii,0
same,LC50 (95% CL),L. dispar larvae,0.234 (0.216-0.258) mg/cm^2
same,decreased toxicities compared with MB,L. dispar larvae,50%
same,LD50,"S. invicta workers [4]; colony 1, 24 h",112.72 μg/ant
same,LD50,"S. invicta workers [4]; colony 2, 24 h",81.78 μg/ant
same,LD50,"S. invicta workers [4]; colony 3, 24 h",47.52 μg/ant
same,increase of mean mortality compared with MB,S. invicta workers [4],6 times
same,mean mortality,S. invicta workers [4],47.23%
same,LC50,"S. invicta workers [1]; 24 h, colony 1, 24 h",0.64 µg/mL
same,LC50,"S. invicta workers [1]; 24 h, colony 2, 24 h",0.54 µg/mL
same,LC50,"S. invicta workers [1]; 24 h, colony 3, 24 h",0.65 µg/mL
same,LC50,S. invicta workers [1]; [7],0.61 µg/mL
same,mortality at 1.43 µg/mL,S. invicta workers [1]; [8],~100%
same,LC50 (95% CL),H. halys eggs,0.016 (0.008-0.026) mg/cm^2
same,hazard according to Safety Data Sheet (SDS) from the producer,[6],not even considered as a hazardous substance
same,LC50 (95% CL),H. halys nymphs [2]; 3rd stage nymphs,1.509 (1.322-1.792) μL/vial
"CCCCCCOC(=O)c1ccccc1 [nHB, n-hexyl benzoate]",insecticidal toxicity against D. suzukii (in words),"D. suzukii; 1% concentration on 4 days pre-infested blueberries, 10 days incubation",did not show any insecticidal activities
same,Adults,D. suzukii,33.7(7.4)
same,Larvae,D. suzukii,7.0(1.0)
same,Pupae,D. suzukii,40.3(7.0)
same,larvicidal toxicity against L. dispar (in words),L. dispar larvae,did not show any toxicities
same,LD50,"S. invicta workers [4]; colony 1, 24 h",37.1 μg/ant
same,LD50,"S. invicta workers [4]; colony 2, 24 h",42.23 μg/ant
same,LD50,"S. invicta workers [4]; colony 3, 24 h",28.64 μg/ant
same,contact toxicity against S. invicta (in words),S. invicta workers [4]; in vivo,comparable results; also recorded: potent contact toxicities
same,hazard according to Safety Data Sheet (SDS) from the producer,[6],neither known OSHA hazards nor aquatic toxicity
same,toxicity against H. halys nymphs (in words),H. halys nymphs [2]; in vivo,did not show toxicities

# From patent publication US20230371508A1, “COMPOSITIONS AND METHODS FOR KILLING INSECT AND NON-INSECT PESTS” (The United States of America, as represented by the …, priority 2018, published 2023)
